Results reported in PubChem BioAssay AID1963830 (Molecular Pharmacology Branch, DTP, NCI, 2024).

System: 922993-354-T-J3-PDC complex spheroid viability
Assay: Anticancer human tumor 922993-354-T-J3-PDC patient-derived endometrial carcinoma cell line growth inhibition [POLQ]
Conditions: for IC50: curve of first compound; for viability, T/C: stronger effect = lower value
Method: Multicellular complex tumor spheroid response to Polymerase (POL) inhibitors (novobiocin, ART-558, RP6685) in combination with a variety of drugs and investigational agents in selected tumor cell lines
The POL inhibitors (novobiocin, ART-558, and RP6685) were evaluated both individually and in combination with standard of care and investigational anticancer small molecules within a complex spheroid model of solid tumors. . Complex spheroids include a stromal component modeled by human endothelial cells (HUVEC) and fibroblasts modeled by human mesenchymal stem cells (MSCs). The concentration ranges selected for each drug and investigational agent were based upon clinically achievable concentrations if the clinical Cmax of the agent was known.
Compounds. The drugs and investigational agents: novobiocin (NSC847541), ART-558 (NSC835418), RP-6685 (NSC848927), peposertib (NSC802822), ceralasertib (NSC780249), elimusertib (NSC800525), camonsertib (NSC841442), AZD-1390 (NSC803789), olaparib (NSC753686), talazoparib (NSC767125), rucaparib (NSC756644), sotorasib (NSC818433), MRTX-1133 (NSC836407), SN-38 (NSC673596), topotecan (NSC609699), epotoside (NSC141540), doxorubicin (NSC123127), gemcitabine (NSC613327), 5-fluorouracil (NSC19893), paclitaxel (NSC125973), vemurafenib (NSC761431), MSA-2 (NSC828583), SN-011 (NSC837082), adavosertib (NSC754352), prexasertib (NSC758257), carboplatin (NSC241240) and oxaliplatin (NSC266046), were obtained from the National Cancer Institute (NCI) Developmental Therapeutics Program Chemical Repository (21). The FDA-approved anticancer drug set is available from the Developmental Therapeutics Program at https://dtp.cancer.gov/organization/dscb/obtaining/. […] The stock solutions were prepared in dimethyl sulfoxide (DMSO, Sigma-Aldrich, St. Louis, MO, cat. D2650), except for the platinum compounds which were prepared in saline (Quality Biological, Gaithersburg, MD, cat. 114-055-101), at 800-fold the tested concentration and stored at -70 degrees C prior to their use. All drugs and investigational agents were tested over a range starting from a high concentration at or near the clinical Cmax and decreasing in half-log increments. If the clinical Cmax for an agent had not been determined, the highest concentration tested was 10 microM, except for SN-38, which was tested at a high concentration of 1 microM.
Cell Culture. All cells were maintained in an incubator at 37 degrees C and 5% CO2 with 95% humidity. The PDC lines were cultured according to standard operating procedures established by the NCI PDMR (https://pdmr.cancer.gov). Table 3 of the manuscript, lists the cell lines along with the number of the three cell types plated to form the mct-spheroids and media for tumor cell growth. After thawing, all PDC lines, except 997537-175-T-J1-PDC and 415267-285-R-J2-PDC, were cultured in Matrigel-coated flasks prepared with a working solution of 1X Ham's F-12 nutrient mix, without supplementation (Thermo Fisher Scientific, cat. 11765054), 100 U/mL penicillin-streptomycin (Thermo Fisher Scientific, cat. 15140122), and 2.5% Matrigel (Corning Inc., Corning, NY, cat. 354248) for the first three passages. The two PDC lines 997537-175-T-J1-PDC and 415267-285-R-J2-PDC were cultured on uncoated flasks. The 857933-349-R-J2-PDC line was cultured in 6C/Colon 1B media containing advanced DMEM/F-12 (Thermo Fisher Scientific, cat. 12634028), 10 mM HEPES (Thermo Fisher Scientific, cat. 15630080), 1X GlutaMAX supplement (Thermo Fisher Scientific, cat. 35050061), 0.1 mg/mL primocin (InvivoGen, San Diego, CA, cat. ant-pm-2), 10% defined fetal bovine serum, heat inactivated (HyClone Laboratories Inc., Logan, UT, cat. SH30070.03HI), 50% L-WRN conditioned media (ATCC, cat. CRL-3276), 1.25 mM N-Acetyl-L-cysteine (Sigma-Aldrich, cat. A9165), 10 mM nicotinamide (Sigma-Aldrich, cat. N0636), 1X B-27 supplement (Thermo Fisher Scientific, cat. 17504044), 1X N-2 supplement (Thermo Fisher Scientific, cat. […]

[1] = second compound 0.0316 µM, first compound 0.0316 µM
[2] = second compound 0.0316 µM, first compound 0.1 µM
[3] = second compound 0.0316 µM, first compound 0.316 µM
[4] = second compound 0.0316 µM, first compound 1 µM
[5] = second compound 0.0316 µM, first compound 3.16 µM
[6] = second compound 0.0316 µM, first compound 10 µM
[7] = second compound 0.1 µM, first compound 0.0316 µM
[8] = second compound 0.1 µM, first compound 0.1 µM
[9] = second compound 0.1 µM, first compound 0.316 µM
[10] = second compound 0.1 µM, first compound 1 µM
[11] = second compound 0.1 µM, first compound 3.16 µM
[12] = second compound 0.1 µM, first compound 10 µM
[13] = second compound 0.316 µM, first compound 0.0316 µM
[14] = second compound 0.316 µM, first compound 0.1 µM
[15] = second compound 0.316 µM, first compound 0.316 µM
[16] = second compound 0.316 µM, first compound 1 µM
[17] = second compound 0.316 µM, first compound 3.16 µM
[18] = second compound 0.316 µM, first compound 10 µM
[19] = second compound 1 µM, first compound 0.0316 µM
[20] = second compound 1 µM, first compound 0.1 µM
[21] = second compound 1 µM, first compound 0.316 µM
[22] = second compound 1 µM, first compound 1 µM
[23] = second compound 1 µM, first compound 3.16 µM
[24] = second compound 1 µM, first compound 10 µM
[25] = second compound 3.16 µM, first compound 0.0316 µM
[26] = second compound 3.16 µM, first compound 0.1 µM
[27] = second compound 3.16 µM, first compound 0.316 µM
[28] = second compound 3.16 µM, first compound 1 µM
[29] = second compound 3.16 µM, first compound 3.16 µM
[30] = second compound 3.16 µM, first compound 10 µM
[31] = second compound 10 µM, first compound 0.0316 µM
[32] = second compound 10 µM, first compound 0.1 µM
[33] = second compound 10 µM, first compound 0.316 µM
[34] = second compound 10 µM, first compound 1 µM
[35] = second compound 10 µM, first compound 3.16 µM
[36] = second compound 10 µM, first compound 10 µM
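Also: spheroids exposed to the agents for one week.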
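For viability, T/C in this document: 100% = DMSO vehicle control wells.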

For `CNCc1ccc(-c2[nH]c3cc(F)cc4c3c2CCNC4=O)cc1` + COC1C(OC(N)=O)C(O)C(Oc2ccc3c(O)c(NC(=O)c4ccc(O)c(CC=C(C)C)c4)c(=O)oc3c2C)OC1(C)C, the IC50 (second compound 0.0316 µM) was > 10 µM, the IC50 (second compound 0.1 µM) was > 10 µM and the IC50 (second compound 0.316 µM) was > 10 µM. The IC50 (second compound 1 µM) was > 10 µM, the IC50 (second compound 3.16 µM) was > 10 µM and the IC50 (second compound 10 µM) was > 10 µM. For the same compound, the viability, T/C [1] was 104%, the viability, T/C [2] was 100% and the viability, T/C [3] was 98.3%. It also gave a viability, T/C [4] of 109%, a viability, T/C [5] of 105% and a viability, T/C [6] of 85.4%. For the same compound, the viability, T/C [7] was 107%, the viability, T/C [8] was 106% and the viability, T/C [9] was 94.3%. The viability, T/C [10] was 90%, the viability, T/C [11] was 91.5% and the viability, T/C [12] was 78.6%. The viability, T/C [13] was 102%, the viability, T/C [14] was 103% and the viability, T/C [15] was 108%. It also gave a viability, T/C [16] of 90.3%, a viability, T/C [17] of 85.8% and a viability, T/C [18] of 81.3%. It also gave a viability, T/C [19] of 102%, a viability, T/C [20] of 101% and a viability, T/C [21] of 98.2%. It also gave a viability, T/C [22] of 107%, a viability, T/C [23] of 89% and a viability, T/C [24] of 77.4%. It also gave a viability, T/C [25] of 95.5%, a viability, T/C [26] of 89.9% and a viability, T/C [27] of 86.6%. For the same compound, the viability, T/C [28] was 79%, the viability, T/C [29] was 108% and the viability, T/C [30] was 70.1%. For the same compound, the viability, T/C [31] was 95.4%, the viability, T/C [32] was 80.8% and the viability, T/C [33] was 80.9%. The viability, T/C [34] was 73.1%, the viability, T/C [35] was 86.7% and the viability, T/C [36] was 78.8%.
With `CNCc1ccc(-c2[nH]c3cc(F)cc4c3c2CCNC4=O)cc1` + Cc1cccc(N(C)C(=O)C2C(O)CCN2c2nc(C)cc(C(F)(F)F)c2C#N)c1 the IC50 (second compound 0.0316 µM) was > 10 µM, the IC50 (second compound 0.1 µM) was > 10 µM and the IC50 (second compound 0.316 µM) was > 10 µM. The IC50 (second compound 1 µM) was > 10 µM, the IC50 (second compound 3.16 µM) was > 10 µM and the IC50 (second compound 10 µM) was 8.53 µM. The viability, T/C [1] was 103%, the viability, T/C [2] was 101% and the viability, T/C [3] was 104%. For the same compound, the viability, T/C [4] was 99.5%, the viability, T/C [5] was 89.7% and the viability, T/C [6] was 82.9%. The viability, T/C [7] was 105%, the viability, T/C [8] was 101% and the viability, T/C [9] was 100%. It also gave a viability, T/C [10] of 107%, a viability, T/C [11] of 89.5% and a viability, T/C [12] of 90%. It also gave a viability, T/C [13] of 110%, a viability, T/C [14] of 105% and a viability, T/C [15] of 96.3%. The viability, T/C [16] was 97.4%, the viability, T/C [17] was 92.3% and the viability, T/C [18] was 86.7%. The viability, T/C [19] was 110%, the viability, T/C [20] was 100% and the viability, T/C [21] was 108%. For the same compound, the viability, T/C [22] was 90.8%, the viability, T/C [23] was 94.6% and the viability, T/C [24] was 90.6%. For the same compound, the viability, T/C [25] was 105%, the viability, T/C [26] was 104% and the viability, T/C [27] was 97%. For the same compound, the viability, T/C [28] was 90.8%, the viability, T/C [29] was 97.7% and the viability, T/C [30] was 82.8%. It also gave a viability, T/C [31] of 105%, a viability, T/C [32] of 101% and a viability, T/C [33] of 106%. The viability, T/C [34] was 87.8%, the viability, T/C [35] was 84.7% and the viability, T/C [36] was 44.1%.
For `Nc1ccn(C2OC(CO)C(O)C2(F)F)c(=O)n1` (stereo unspecified) + Cc1cccc(N(C)C(=O)C2C(O)CCN2c2nc(C)cc(C(F)(F)F)c2C#N)c1, the IC50 (second compound 0.0316 µM) was < 0.0316 µM, the IC50 (second compound 0.1 µM) was < 0.0316 µM and the IC50 (second compound 0.316 µM) was < 0.0316 µM. For the same compound, the IC50 (second compound 1 µM) was < 0.0316 µM, the IC50 (second compound 3.16 µM) was < 0.0316 µM and the IC50 (second compound 10 µM) was < 0.0316 µM. It also gave a viability, T/C [1] of 11.1%, a viability, T/C [2] of 10.3% and a viability, T/C [3] of 9.57%. The viability, T/C [4] was 11.8%, the viability, T/C [5] was 9.18% and the viability, T/C [6] was 9.18%. The viability, T/C [7] was 14.8%, the viability, T/C [8] was 10.9% and the viability, T/C [9] was 11.3%. For the same compound, the viability, T/C [10] was 10.7%, the viability, T/C [11] was 10.7% and the viability, T/C [12] was 11%. The viability, T/C [13] was 11.9%, the viability, T/C [14] was 11.5% and the viability, T/C [15] was 11.9%. It also gave a viability, T/C [16] of 9.92%, a viability, T/C [17] of 8.14% and a viability, T/C [18] of 9.97%. The viability, T/C [19] was 12.6%, the viability, T/C [20] was 9.47% and the viability, T/C [21] was 8.22%. The viability, T/C [22] was 8.9%, the viability, T/C [23] was 7.29% and the viability, T/C [24] was 10.3%. It also gave a viability, T/C [25] of 11.3%, a viability, T/C [26] of 10.2% and a viability, T/C [27] of 10.6%. The viability, T/C [28] was 7.56%, the viability, T/C [29] was 9.43% and the viability, T/C [30] was 10.6%. It also gave a viability, T/C [31] of 7.43%, a viability, T/C [32] of 8.87% and a viability, T/C [33] of 7.1%. It also gave a viability, T/C [34] of 6.45%, a viability, T/C [35] of 8.61% and a viability, T/C [36] of 8.92%.
